Measurements reported in publication PMC3507590 (Diabetes Care, 2012).
Read-outs that look alike come from different tables or passages of the source.

What was measured:
IGF-1 receptor (IGF-1R) = conditions: cited from earlier work; for affinity for IGF-1 receptor versus human insulin: as stated in the abstract
[1] = in vitro; cited from earlier work
[2] = test system: malignant cell lines expressing primarily IGF-1R; conditions: cited from earlier work
[3] = for detectability / plasma concentration after s.c. glargine: any dose (0.3-1.2 units/kg), any time point 3-30 h, LLOQ 33 pmol/L
[4] = test system: insulin/IGF-1 hybrid receptors; conditions: in vitro; ref Pierre-Eugene et al., PLoS One 2012;7:e41992; cited from earlier work
animals = conditions: in vivo in animals; cited from earlier work
MCF-7 cells = conditions: ref Pierre-Eugene et al., PLoS One 2012;7:e41992; cited from earlier work
[5] = in vitro, 37°C, mass spectrometry; cited from earlier work
[6] = acidic pH; precipitates amorphously upon s.c. injection; cited from earlier work
[7] = test system: subjects with type 1 and type 2 diabetes; conditions: after multiple dosing; cited from earlier work
insulin receptors (IR) = conditions: cited from earlier work

21^A-Gly-des-30^B-Thr-human insulin [M2]
affinity for IGF-1 receptor versus human insulin (IGF-1 receptor (IGF-1R); in vitro): lower affinity
affinity for IGF-1R compared with glargine, and even with human insulin (IGF-1 receptor (IGF-1R); in vitro): lower affinity
metabolic properties relative to human insulin [1]: fully retaining its metabolic properties
mitogenic potential in vitro compared with glargine, and even with human insulin [2]: lower mitogenic potential
time of first appearance in plasma ([3]; after s.c. glargine, associated with high M1 concentration): first appeared after 12 h
potency for stimulation of insulin/IGF-1 hybrid receptors versus human insulin [4]: lower potency

21^A-Gly-31^B-Arg-32^B-Arg-human insulin [glargine, reference compound]
affinity for IGF-1 receptor versus human insulin (IGF-1 receptor (IGF-1R); in vitro): slightly higher affinity
binding affinity for IGF-1R compared with human insulin (IGF-1 receptor (IGF-1R); in vitro): greater binding affinity
tumor growth promotion (animals): does not promote tumor growth
potency on DNA synthesis (mitogenic effects) compared with human insulin ([2]; in vitro, malignant cell lines expressing primarily IGF-1R): greater potency
detectability / plasma concentration after s.c. glargine [3]: nearly always fall below LLOQ
detectability / plasma concentration after s.c. glargine ([3]; listed as Glargine): detectable in only one-third of subjects
proliferative/antiapoptotic effects versus human insulin (MCF-7 cells): greater proliferative/antiapoptotic effects
time for quantitative degradation into M1 in human serum [5]: ≤ 1 h
solubility [6]: Soluble at acidic pH
duration of action [7]: > 24 h
potency for stimulation of insulin/IGF-1 hybrid receptors versus human insulin [4]: higher potency

31^B-Arg-32^B-Arg-human insulin [reference compound]
IGF-1R affinity compared with glargine (IGF-1 receptor (IGF-1R); in vitro): even greater IGF-1R affinity

10^B-Asp-human insulin [X10, reference compound]
affinity for IGF-1R (IGF-1 receptor (IGF-1R)): greater affinity
affinity for IR (insulin receptors (IR)): greater affinity

21^A-Gly-human insulin [M1]
affinity for IGF-1 receptor versus human insulin (IGF-1 receptor (IGF-1R); in vitro): lower affinity
affinity for IGF-1R compared with glargine, and even with human insulin (IGF-1 receptor (IGF-1R); in vitro): lower affinity
metabolic properties relative to human insulin [1]: fully retaining its metabolic properties
mitogenic potential in vitro compared with glargine, and even with human insulin [2]: lower mitogenic potential
time of maximum plasma concentrations after subcutaneous injection of glargine ([3]; M1 PK profile, doses 0.3, 0.6, 1.2 units/kg): ~12 h
plasma concentration by 30 h versus baseline ([3]; doses >0.3 units/kg): still elevated over baseline
potency for stimulation of insulin/IGF-1 hybrid receptors versus human insulin [4]: lower potency
